pIC50: −log10 of the molar value. Active and inactive are the calls of the source. The rule behind the calls is not given here.
Legend:
[1] = target: T1, NEDD8 activating enzyme (Homo sapiens) (UniProt Q8TBC4+Q13564); experiment: Inhibition of NAE in human MGC-803 cells assessed as reduction in UBC12-NEDD8 complex incubated for 24 hrs by Western blot analysis; assay type: cell-based; conditions: dose 1-5 µM
MGC-803 [2] = experiment: Induction of apoptosis in human MGC-803 cells assessed as necrotic cells at 1 uM incubated for 48 hrs by Annexin V-FITC/PI double staining based flow cytometry analysis (reference value: 0.37 %); assay type: functional
MGC-803 [3] = experiment: Induction of cell cycle arrest in human MGC-803 cells assessed as accumulation of cells in G2/M phase at 4 uM incubated for 24 hrs by flow cytometry analysis (reference value: 13.25%); assay type: functional
A549 = experiment: Antiproliferative activity against human A549 cells by CCK8 assay; assay type: functional, cell-based
MGC-803 [4] = experiment: Induction of apoptosis in human MGC-803 cells assessed as late apoptosis cells at 2 uM incubated for 48 hrs by Annexin V-FITC/PI double staining based flow cytometry analysis (reference value: 1.95 %); assay type: functional
MGC-803 [5] = experiment: Induction of apoptosis in human MGC-803 cells assessed as early apoptosis cells at 4 uM incubated for 48 hrs by Annexin V-FITC/PI double staining based flow cytometry analysis (reference value: 0.39 %); assay type: functional
MGC-803 [6] = experiment: Induction of cell cycle arrest in human MGC-803 cells assessed as accumulation of cells at G1 phase at 1 uM incubated for 24 hrs by flow cytometry analysis (reference value: 64.82%); assay type: functional
MGC-803 [7] = experiment: Inhibition of colony formation in human MGC-803 cells incubated for 48 hrs by phase-contrast microscopy; assay type: functional, cell-based; conditions: dose 1-4 µM
MGC-803 [8] = experiment: Induction of apoptosis in human MGC-803 cells assessed as late apoptosis cells at 4 uM incubated for 48 hrs by Annexin V-FITC/PI double staining based flow cytometry analysis (reference value: 1.95 %); assay type: functional
[9] = Selectivity index, ratio of IC50 for human MGC-803 cells to IC50 for HUVECs
MGC-803 [10] = experiment: Induction of apoptosis in human MGC-803 cells assessed as viable cells at 4 uM incubated for 48 hrs by Annexin V-FITC/PI double staining based flow cytometry analysis (reference value: 97.3 %); assay type: functional; conditions: read-out: Activity
MGC-803 [11] = experiment: Induction of apoptosis in human MGC-803 cells assessed as viable cells at 2 uM incubated for 48 hrs by Annexin V-FITC/PI double staining based flow cytometry analysis (reference value: 97.3 %); assay type: functional; conditions: read-out: Activity
MGC-803 [12] = experiment: Induction of cell cycle arrest in human MGC-803 cells assessed as accumulation of cells in G2/M phase at 2 uM incubated for 24 hrs by flow cytometry analysis (reference value: 13.25%); assay type: functional
MGC-803 [13] = experiment: Induction of cell cycle arrest in human MGC-803 cells assessed as accumulation of cells in S phase at 2 uM incubated for 24 hrs by flow cytometry analysis (reference value: 21.93%); assay type: functional
[14] = target: T1, NEDD8 activating enzyme (Homo sapiens); experiment: Inhibition of NAE in human MGC-803 cells assessed as reduction in cullin3 neddylation incubated for 24 hrs by Western blot analysis; assay type: cell-based; conditions: dose 1-5 µM
[15] = target: T1, NEDD8 activating enzyme (Homo sapiens); experiment: Inhibition of NAE in human MGC-803 cells assessed as reduction in cullin1 neddylation incubated for 24 hrs by Western blot analysis; assay type: cell-based; conditions: dose 1-5 µM
MGC-803 [16] = experiment: Induction of ROS generation in human MGC-803 cells at 4 uM incubated for 24 hrs by DCFH-DA staining based flow cytometry analysis (reference value: 3.1%); assay type: functional
MGC-803 [17] = experiment: Induction of ROS generation in human MGC-803 cells at 1 uM incubated for 24 hrs by DCFH-DA staining based flow cytometry analysis (reference value: 3.1%); assay type: functional
MGC-803 [18] = experiment: Induction of cell cycle arrest in human MGC-803 cells assessed as accumulation of cells at G1 phase at 2 uM incubated for 24 hrs by flow cytometry analysis (reference value: 64.82%); assay type: functional
MGC-803 [19] = experiment: Induction of cell cycle arrest in human MGC-803 cells assessed as accumulation of cells in G2/M phase at 1 uM incubated for 24 hrs by flow cytometry analysis (reference value: 13.25%); assay type: functional
MGC-803 [20] = experiment: Induction of cell cycle arrest in human MGC-803 cells assessed as accumulation of cells in S phase at 4 uM incubated for 24 hrs by flow cytometry analysis (reference value: 21.93%); assay type: functional
[21] = Selectivity index, ratio of IC50 for human KYSE-30 cells to IC50 for HUVECs
[22] = Selectivity index, ratio of IC50 for human A549 cells to IC50 for HUVECs
MGC-803 [23] = experiment: Induction of apoptosis in human MGC-803 cells assessed as viable cells at 1 uM incubated for 48 hrs by Annexin V-FITC/PI double staining based flow cytometry analysis (reference value: 97.3 %); assay type: functional; conditions: read-out: Activity
MGC-803 [24] = experiment: Antiproliferative activity against human MGC-803 cells by CCK8 assay; assay type: functional, cell-based
[25] = Selectivity index, ratio of IC50 for human MCF7 cells to IC50 for HUVECs
MGC-803 [26] = experiment: Induction of apoptosis in human MGC-803 cells assessed as necrotic cells at 2 uM incubated for 48 hrs by Annexin V-FITC/PI double staining based flow cytometry analysis (reference value: 0.37 %); assay type: functional
[27] = target: T1, NEDD8 activating enzyme (Homo sapiens); experiment: Inhibition of NAE in human MGC-803 cells assessed as reduction in NAE1-NEDD8 complex incubated for 24 hrs by Western blot analysis; assay type: cell-based; conditions: dose 1-5 µM
[28] = Cytotoxicity against HUVECs incubated for 72 hrs by CCK8 assay; assay type: toxicity, cell-based; conditions: human, HUVEC cells
MGC-803 [29] = experiment: Induction of apoptosis in human MGC-803 cells assessed as late apoptosis cells at 1 uM incubated for 48 hrs by Annexin V-FITC/PI double staining based flow cytometry analysis (reference value: 1.95 %); assay type: functional
MGC-803 [30] = experiment: Induction of cell cycle arrest in human MGC-803 cells assessed as accumulation of cells at G1 phase at 4 uM incubated for 24 hrs by flow cytometry analysis (reference value: 64.82%); assay type: functional
MGC-803 [31] = experiment: Induction of ROS generation in human MGC-803 cells at 2 uM incubated for 24 hrs by DCFH-DA staining based flow cytometry analysis (reference value: 3.1%); assay type: functional
[32] = target: T1, NEDD8 activating enzyme (Homo sapiens); experiment: Inhibition of NAE in human MGC-803 cells assessed as reduction in NAE1-NEDD8 complex formation at 5 uM incubated for 24 hrs by Western blot analysis relative to control; assay type: cell-based
MCF7 = experiment: Antiproliferative activity against human MCF7 cells by CCK8 assay; assay type: functional, cell-based
[33] = target: T1, NEDD8 activating enzyme (Homo sapiens); experiment: Inhibition of NAE in human MGC-803 cells assessed as reduction in cullin5 neddylation incubated for 24 hrs by Western blot analysis; assay type: cell-based; conditions: dose 1-5 µM
MGC-803 [34] = experiment: Induction of apoptosis in human MGC-803 cells assessed as early apoptosis cells at 1 uM incubated for 48 hrs by Annexin V-FITC/PI double staining based flow cytometry analysis (reference value: 0.39 %); assay type: functional
MGC-803 [35] = experiment: Induction of apoptosis in human MGC-803 cells assessed as early apoptosis cells at 2 uM incubated for 48 hrs by Annexin V-FITC/PI double staining based flow cytometry analysis (reference value: 0.39 %); assay type: functional
MGC-803 [36] = experiment: Inhibition of cell migration in human MGC-803 cells assessed as reduction in wound closure rate at 4 uM incubated for 48 hrs by wound healing assay (reference value: 49%); assay type: functional
MGC-803 [37] = experiment: Induction of cell cycle arrest in human MGC-803 cells assessed as accumulation of cells in S phase at 1 uM incubated for 24 hrs by flow cytometry analysis (reference value: 21.93%); assay type: functional
KYSE-30 = experiment: Antiproliferative activity against human KYSE-30 cells by CCK8 assay; assay type: functional, cell-based
MGC-803 [38] = experiment: Induction of apoptosis in human MGC-803 cells assessed as necrotic cells at 4 uM incubated for 48 hrs by Annexin V-FITC/PI double staining based flow cytometry analysis (reference value: 0.37 %); assay type: functional
MGC-803 [39] = experiment: Inhibition of cell migration in human MGC-803 cells incubated for 48 hrs by wound healing assay; assay type: functional, cell-based; conditions: dose 1-4 µM

SMILES: CCc1ccc(C(=O)Nc2nc3ccc(NC(=O)C4CCN(Cc5ccccc5)CC4)cc3s2)cc1
- inhibition [1]: Dose-Dependent Effect
- Activity (MGC-803 [2]): 0.18%
- Activity (MGC-803 [3]): 37.66%
- pIC50 (A549): 6.06
- Activity (MGC-803 [4]): 18.5%
- Activity (MGC-803 [5]): 8.54%
- Activity (MGC-803 [6]): 68.08%
- inhibition (MGC-803 [7]): Dose-Dependent Effect
- Activity (MGC-803 [8]): 33.8%
- Ratio IC50 [9]: 3.8
- viability at 4 µM (MGC-803 [10]): 57.6%
- viability at 2 µM (MGC-803 [11]): 73.3%
- Activity (MGC-803 [12]): 25.9%
- Activity (MGC-803 [13]): 12.39%
- inhibition [14]: Dose-Dependent Effect
- inhibition [15]: Dose-Dependent Effect
- Activity (MGC-803 [16]): 26.4%
- Activity (MGC-803 [17]): 6.8%
- Activity (MGC-803 [18]): 61.71%
- Activity (MGC-803 [19]): 18.63%
- Activity (MGC-803 [20]): 17.12%
- Ratio IC50 [21]: 3.8
- Ratio IC50 [22]: 3.8
- viability at 1 µM (MGC-803 [23]): 86.5%
- pIC50 (MGC-803 [24]): 5.79
- Ratio IC50 [25]: 3.8
- Activity (MGC-803 [26]): 0.23%
- inhibition [27]: Dose-Dependent Effect
- IC50 at 72 h [28]: 6210 nM
- Activity (MGC-803 [29]): 10.1%
- Activity (MGC-803 [30]): 45.22%
- Activity (MGC-803 [31]): 13.1%
- inhibition [32]: 100%
- pIC50 (MCF7): 6.02
- inhibition [33]: inactive
- Activity (MGC-803 [34]): 3.15%
- Activity (MGC-803 [35]): 7.92%
- inhibition at 4 µM (MGC-803 [36]): < 20%
- Activity (MGC-803 [37]): 13.29%
- pIC50 (KYSE-30): 6.19
- Activity (MGC-803 [38]): 0.11%
- inhibition (MGC-803 [39]): Dose-Dependent Effect

Source: ChEMBL document CHEMBL5625268, “Identification of novel benzothiazole derivatives as inhibitors of NEDDylation pathway to inhibit the progression of gastric cancer” (Bioorg Med Chem Lett, 2024)
